Drawing on ChEMBL document CHEMBL1201862, “PubChem BioAssay data set” (2004), this text covers IC50, AC50 and EC50 for three molecules.

By IC50 is commonly meant the concentration that gives 50% inhibition. Usually AC50 stands for the concentration at which the activity in the assay is half-maximal. One may read the EC50 as the concentration needed to bring the measured effect to its halfway point.

The source made the active and inactive calls.

For one test, the target named is Phospholipase A2 (Homo sapiens, UniProt P04054). The format is functional.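 Also: confirmatory dose-response counterscreen on phospholipase A2, testing hits that came from an ultra-high-throughput screen for ATG4B inhibitors.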
The next test deals with Prothrombin (Bos taurus, UniProt P00735). The experiment in a line: thrombin inhibition, dose response, biochemical, fluorescence polarization, uHTS hits (AID 602369). The format is functional.
In test [1] the target is T1, Voltage-gated N-type calcium channel alpha-1B subunit/Amyloid beta A4 precursor protein-binding family A member 1 (Homo sapiens, UniProt Q00975+Q02410). The format is protein assay.
The target of test [2] is T1, Voltage-gated N-type calcium channel alpha-1B subunit/Amyloid beta A4 precursor protein-binding family A member 1. The format is protein assay. The source holds these as a separate data set.
A further test addresses T2, Cysteine protease ATG4B (Homo sapiens, UniProt Q9Y4P1).
T2 sequence (Q9Y4P1 whole entry): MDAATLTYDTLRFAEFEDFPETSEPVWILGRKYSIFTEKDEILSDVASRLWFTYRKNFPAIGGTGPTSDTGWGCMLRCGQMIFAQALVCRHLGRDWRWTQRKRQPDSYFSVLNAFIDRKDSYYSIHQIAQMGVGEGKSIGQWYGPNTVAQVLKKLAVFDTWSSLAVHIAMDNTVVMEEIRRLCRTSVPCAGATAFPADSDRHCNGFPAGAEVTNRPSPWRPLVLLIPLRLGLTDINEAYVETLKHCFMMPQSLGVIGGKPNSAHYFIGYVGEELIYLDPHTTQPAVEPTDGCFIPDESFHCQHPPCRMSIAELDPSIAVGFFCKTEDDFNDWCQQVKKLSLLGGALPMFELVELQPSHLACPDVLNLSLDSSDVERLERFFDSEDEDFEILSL
In kind it is functional.

The target in test [3] is 26S proteasome non-ATPase regulatory subunit 14 (Homo sapiens, UniProt O00487). The experiment in a line: inhibition of proteasome subunit RPN11 – biochemical, fluorescence polarization, uHTS hits, confirmation (AID 602368). The format is functional. On the technique in general: Polarisation of emitted light reports the rotation of a fluorescent probe.
The target in test [4] is T3, Histone-lysine N-methyltransferase NSD2 (Homo sapiens, UniProt O96028).
T3 sequence (O96028 whole entry): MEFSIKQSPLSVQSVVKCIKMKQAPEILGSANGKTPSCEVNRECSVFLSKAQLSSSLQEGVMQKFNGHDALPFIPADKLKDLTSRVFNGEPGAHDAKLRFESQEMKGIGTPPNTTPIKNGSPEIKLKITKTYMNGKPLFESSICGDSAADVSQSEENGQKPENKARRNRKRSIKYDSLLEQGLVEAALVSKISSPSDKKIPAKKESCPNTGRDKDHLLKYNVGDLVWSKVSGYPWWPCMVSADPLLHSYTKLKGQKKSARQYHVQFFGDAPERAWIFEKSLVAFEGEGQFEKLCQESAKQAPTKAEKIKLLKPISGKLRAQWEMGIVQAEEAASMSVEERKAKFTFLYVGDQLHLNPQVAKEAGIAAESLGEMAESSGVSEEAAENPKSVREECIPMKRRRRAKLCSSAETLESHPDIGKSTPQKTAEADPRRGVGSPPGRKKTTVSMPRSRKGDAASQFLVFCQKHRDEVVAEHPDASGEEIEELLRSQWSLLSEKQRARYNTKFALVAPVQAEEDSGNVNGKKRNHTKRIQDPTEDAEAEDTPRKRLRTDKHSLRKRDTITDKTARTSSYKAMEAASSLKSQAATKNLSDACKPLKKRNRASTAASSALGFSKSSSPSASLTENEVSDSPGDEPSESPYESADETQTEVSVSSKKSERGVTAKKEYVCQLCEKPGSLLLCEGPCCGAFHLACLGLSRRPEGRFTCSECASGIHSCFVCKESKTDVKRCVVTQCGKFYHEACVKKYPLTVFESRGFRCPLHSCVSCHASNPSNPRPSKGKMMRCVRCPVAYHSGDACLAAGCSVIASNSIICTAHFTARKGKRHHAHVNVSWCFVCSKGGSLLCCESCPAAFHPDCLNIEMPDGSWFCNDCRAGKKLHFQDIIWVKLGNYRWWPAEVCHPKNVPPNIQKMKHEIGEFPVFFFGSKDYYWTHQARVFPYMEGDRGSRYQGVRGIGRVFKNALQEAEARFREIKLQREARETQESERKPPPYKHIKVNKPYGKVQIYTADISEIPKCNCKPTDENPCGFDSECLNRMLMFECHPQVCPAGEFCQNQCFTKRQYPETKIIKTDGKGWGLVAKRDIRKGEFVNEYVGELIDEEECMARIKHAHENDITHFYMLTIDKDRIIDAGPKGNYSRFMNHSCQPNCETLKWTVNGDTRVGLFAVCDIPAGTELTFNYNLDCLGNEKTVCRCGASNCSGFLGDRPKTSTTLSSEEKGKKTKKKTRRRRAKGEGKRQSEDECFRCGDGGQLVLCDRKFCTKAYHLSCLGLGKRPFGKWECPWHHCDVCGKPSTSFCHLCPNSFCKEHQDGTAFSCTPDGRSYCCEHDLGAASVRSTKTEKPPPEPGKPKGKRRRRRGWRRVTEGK
In kind it is biochemical.

A further test has as its target T4, Aminopeptidase N (Plasmodium falciparum FcB1/Columbia, UniProt O96935).
T4 sequence (O96935 whole entry): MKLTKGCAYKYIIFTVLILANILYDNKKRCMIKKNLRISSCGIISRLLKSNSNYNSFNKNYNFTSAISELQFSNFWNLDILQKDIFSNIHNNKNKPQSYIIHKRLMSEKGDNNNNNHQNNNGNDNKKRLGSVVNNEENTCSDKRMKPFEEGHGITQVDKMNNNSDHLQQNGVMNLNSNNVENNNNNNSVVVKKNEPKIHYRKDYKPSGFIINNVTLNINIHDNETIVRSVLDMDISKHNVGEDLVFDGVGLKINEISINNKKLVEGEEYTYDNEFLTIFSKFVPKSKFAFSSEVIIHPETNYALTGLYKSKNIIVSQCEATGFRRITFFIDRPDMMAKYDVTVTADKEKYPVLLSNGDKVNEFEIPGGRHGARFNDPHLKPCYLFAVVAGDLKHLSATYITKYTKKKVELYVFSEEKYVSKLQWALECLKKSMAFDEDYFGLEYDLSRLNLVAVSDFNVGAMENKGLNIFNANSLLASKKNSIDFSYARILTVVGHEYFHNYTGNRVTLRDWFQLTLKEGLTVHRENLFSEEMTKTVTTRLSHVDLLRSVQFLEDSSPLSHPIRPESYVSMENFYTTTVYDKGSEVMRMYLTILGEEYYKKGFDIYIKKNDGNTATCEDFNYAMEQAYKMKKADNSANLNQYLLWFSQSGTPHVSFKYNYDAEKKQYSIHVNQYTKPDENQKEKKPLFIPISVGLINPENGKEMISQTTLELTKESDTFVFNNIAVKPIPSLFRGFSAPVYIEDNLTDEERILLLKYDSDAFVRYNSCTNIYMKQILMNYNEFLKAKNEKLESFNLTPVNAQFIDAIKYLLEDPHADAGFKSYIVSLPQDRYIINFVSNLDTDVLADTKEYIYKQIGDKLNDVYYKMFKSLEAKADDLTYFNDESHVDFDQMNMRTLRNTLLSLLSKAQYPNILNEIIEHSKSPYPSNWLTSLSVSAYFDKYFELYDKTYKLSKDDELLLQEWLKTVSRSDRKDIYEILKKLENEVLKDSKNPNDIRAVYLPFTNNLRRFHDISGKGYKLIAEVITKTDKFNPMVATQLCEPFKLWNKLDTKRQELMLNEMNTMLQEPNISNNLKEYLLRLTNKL
In words: P. falciparum M1AAP inhibitors, biochemical, fluorogenic H-Leu-NHMec substrate, 1536-well (AID 1445). The arrangement: species or system Plasmodium falciparum 3D7, 3D7.

For test [5], the target named is 72 kDa type IV collagenase (Homo sapiens, UniProt P08253). The experiment in a line: Dose Response validation of uHTS RPN11 inhibitor hits using a MMP-2 Fluorescence assay. The format is functional.
The target of test [6] is T5, Ubiquitin-conjugating enzyme E2 N (Homo sapiens, UniProt P61088).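 Also: Dose-response confirmation in a TR-FRET assay detecting UBC13-driven polyubiquitin chain formation, inhibition measured.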
T5 sequence (P61088 whole entry): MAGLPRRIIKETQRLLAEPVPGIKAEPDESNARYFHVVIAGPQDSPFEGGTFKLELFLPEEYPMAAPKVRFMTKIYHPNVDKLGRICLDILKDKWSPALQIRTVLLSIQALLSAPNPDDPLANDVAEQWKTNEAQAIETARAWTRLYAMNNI
In kind it is functional.

The nature of test [7]: inhibitors of firefly luciferase expression or activity, dose response, H4 neuroglioma cells, luminescence (AID 1990). The format is functional, cell-based.
Test [8] is described as follows: Luminescence Cell-Based Dose Response HTS to Identify Inhibitors of 5'UTR Stem-Loop Driven Prion Protein mRNA Translation in H4 Neuroglioblastoma Cells. [Related pubchem assays: 1827 (Project Summary), 1813 (Primary HTS)]. In kind it is functional.
Test [9] has as its target T6, Apoptotic protease-activating factor 1 (Homo sapiens, UniProt O14727).
T6 sequence (O14727 whole entry): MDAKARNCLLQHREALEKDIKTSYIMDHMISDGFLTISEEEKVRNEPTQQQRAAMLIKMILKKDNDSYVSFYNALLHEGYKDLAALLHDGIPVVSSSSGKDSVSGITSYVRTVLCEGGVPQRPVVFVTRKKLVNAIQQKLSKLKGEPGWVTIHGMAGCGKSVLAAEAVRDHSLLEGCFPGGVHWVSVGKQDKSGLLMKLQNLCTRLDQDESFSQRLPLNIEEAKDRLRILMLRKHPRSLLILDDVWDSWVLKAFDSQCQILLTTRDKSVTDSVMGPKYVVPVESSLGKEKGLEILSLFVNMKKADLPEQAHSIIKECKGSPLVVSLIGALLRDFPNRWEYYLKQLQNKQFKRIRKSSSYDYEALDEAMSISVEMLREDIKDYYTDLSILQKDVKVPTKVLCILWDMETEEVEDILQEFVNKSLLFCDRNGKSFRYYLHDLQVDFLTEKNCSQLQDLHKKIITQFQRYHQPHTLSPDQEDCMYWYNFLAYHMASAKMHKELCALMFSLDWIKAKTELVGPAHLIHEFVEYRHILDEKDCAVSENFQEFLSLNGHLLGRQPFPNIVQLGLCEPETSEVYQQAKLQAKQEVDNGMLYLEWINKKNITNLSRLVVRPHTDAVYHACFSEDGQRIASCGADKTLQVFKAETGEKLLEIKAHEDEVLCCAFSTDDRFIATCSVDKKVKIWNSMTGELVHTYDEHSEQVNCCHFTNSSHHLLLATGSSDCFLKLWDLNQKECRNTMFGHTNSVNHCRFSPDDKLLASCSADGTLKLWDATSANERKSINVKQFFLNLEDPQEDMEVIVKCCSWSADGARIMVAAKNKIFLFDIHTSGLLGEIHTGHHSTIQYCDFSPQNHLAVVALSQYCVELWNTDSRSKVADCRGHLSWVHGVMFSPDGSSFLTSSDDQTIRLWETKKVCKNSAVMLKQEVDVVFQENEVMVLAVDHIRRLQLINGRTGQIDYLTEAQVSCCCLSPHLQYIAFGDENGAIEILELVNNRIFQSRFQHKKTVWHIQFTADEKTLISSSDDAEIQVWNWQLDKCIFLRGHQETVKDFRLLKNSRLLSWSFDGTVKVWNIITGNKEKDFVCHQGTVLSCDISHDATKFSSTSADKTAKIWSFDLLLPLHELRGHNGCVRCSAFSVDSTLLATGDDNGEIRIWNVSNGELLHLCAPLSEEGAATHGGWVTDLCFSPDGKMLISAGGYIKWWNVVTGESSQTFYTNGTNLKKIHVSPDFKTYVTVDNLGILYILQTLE
The format is functional.

Test [10] addresses G-protein coupled receptor 55 (Homo sapiens, UniProt Q9Y2T6). The experiment in a line: GPR55 antagonists blocking LPI-driven arrestin recruitment, primary screen, imaging, U2OS, beta-arrestin-GFP, LPI agonist (AID 2013).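 Also: antagonist potency measured as reduced agonist-driven arrestin aggregation.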 The format is functional.
Test [11] can be described thus: inhibitors of SNCA 5'UTR-driven reporter translation, confirmation, H4 neuroglioma cells, luminescence (AID 1988). In kind it is functional, cell-based.
The next test has as its system HT-1080. The experiment in a line: cytotoxicity in HT1080 fibrosarcoma cells, cell-based, fluorescence readout (AID 620). In kind it is functional. The note with it: Homo sapiens.
The target in test [12] is Luciferin 4-monooxygenase (Photinus pyralis, UniProt P08659). The experiment in a line: Counter Screen for Luciferase-based Assay Positives. [Related pubchem assays: 620, 618, 411 ]. For orientation: A counterscreen serves to expose hits that act by an unwanted route or on another target.
Test [13] addresses E3 ubiquitin-protein ligase Mdm2/Protein Mdm4 (Homo sapiens, UniProt O15151+Q00987). The experiment in a line: Mdm2-MdmX interaction inhibitors, dose response, luminescence detection (AID 504593). The format is functional.
Test [14] deals with Aryl hydrocarbon receptor (Homo sapiens, UniProt P35869). In words: Luminescence-based cell-based high throughput dose response assay for activators of the Aryl Hydrocarbon Receptor (AHR). [Related pubchem assays: 2796 (Primary screen (AHR activators in singlicate)), 2845 (Confirmation screen (AHR activators in triplicate)), 434939 (Counterscreen (PXR activators in triplicate)), 2804 (Summary (AHR activators))]. In kind it is ADME.

T1 sequence (Q00975 whole entry): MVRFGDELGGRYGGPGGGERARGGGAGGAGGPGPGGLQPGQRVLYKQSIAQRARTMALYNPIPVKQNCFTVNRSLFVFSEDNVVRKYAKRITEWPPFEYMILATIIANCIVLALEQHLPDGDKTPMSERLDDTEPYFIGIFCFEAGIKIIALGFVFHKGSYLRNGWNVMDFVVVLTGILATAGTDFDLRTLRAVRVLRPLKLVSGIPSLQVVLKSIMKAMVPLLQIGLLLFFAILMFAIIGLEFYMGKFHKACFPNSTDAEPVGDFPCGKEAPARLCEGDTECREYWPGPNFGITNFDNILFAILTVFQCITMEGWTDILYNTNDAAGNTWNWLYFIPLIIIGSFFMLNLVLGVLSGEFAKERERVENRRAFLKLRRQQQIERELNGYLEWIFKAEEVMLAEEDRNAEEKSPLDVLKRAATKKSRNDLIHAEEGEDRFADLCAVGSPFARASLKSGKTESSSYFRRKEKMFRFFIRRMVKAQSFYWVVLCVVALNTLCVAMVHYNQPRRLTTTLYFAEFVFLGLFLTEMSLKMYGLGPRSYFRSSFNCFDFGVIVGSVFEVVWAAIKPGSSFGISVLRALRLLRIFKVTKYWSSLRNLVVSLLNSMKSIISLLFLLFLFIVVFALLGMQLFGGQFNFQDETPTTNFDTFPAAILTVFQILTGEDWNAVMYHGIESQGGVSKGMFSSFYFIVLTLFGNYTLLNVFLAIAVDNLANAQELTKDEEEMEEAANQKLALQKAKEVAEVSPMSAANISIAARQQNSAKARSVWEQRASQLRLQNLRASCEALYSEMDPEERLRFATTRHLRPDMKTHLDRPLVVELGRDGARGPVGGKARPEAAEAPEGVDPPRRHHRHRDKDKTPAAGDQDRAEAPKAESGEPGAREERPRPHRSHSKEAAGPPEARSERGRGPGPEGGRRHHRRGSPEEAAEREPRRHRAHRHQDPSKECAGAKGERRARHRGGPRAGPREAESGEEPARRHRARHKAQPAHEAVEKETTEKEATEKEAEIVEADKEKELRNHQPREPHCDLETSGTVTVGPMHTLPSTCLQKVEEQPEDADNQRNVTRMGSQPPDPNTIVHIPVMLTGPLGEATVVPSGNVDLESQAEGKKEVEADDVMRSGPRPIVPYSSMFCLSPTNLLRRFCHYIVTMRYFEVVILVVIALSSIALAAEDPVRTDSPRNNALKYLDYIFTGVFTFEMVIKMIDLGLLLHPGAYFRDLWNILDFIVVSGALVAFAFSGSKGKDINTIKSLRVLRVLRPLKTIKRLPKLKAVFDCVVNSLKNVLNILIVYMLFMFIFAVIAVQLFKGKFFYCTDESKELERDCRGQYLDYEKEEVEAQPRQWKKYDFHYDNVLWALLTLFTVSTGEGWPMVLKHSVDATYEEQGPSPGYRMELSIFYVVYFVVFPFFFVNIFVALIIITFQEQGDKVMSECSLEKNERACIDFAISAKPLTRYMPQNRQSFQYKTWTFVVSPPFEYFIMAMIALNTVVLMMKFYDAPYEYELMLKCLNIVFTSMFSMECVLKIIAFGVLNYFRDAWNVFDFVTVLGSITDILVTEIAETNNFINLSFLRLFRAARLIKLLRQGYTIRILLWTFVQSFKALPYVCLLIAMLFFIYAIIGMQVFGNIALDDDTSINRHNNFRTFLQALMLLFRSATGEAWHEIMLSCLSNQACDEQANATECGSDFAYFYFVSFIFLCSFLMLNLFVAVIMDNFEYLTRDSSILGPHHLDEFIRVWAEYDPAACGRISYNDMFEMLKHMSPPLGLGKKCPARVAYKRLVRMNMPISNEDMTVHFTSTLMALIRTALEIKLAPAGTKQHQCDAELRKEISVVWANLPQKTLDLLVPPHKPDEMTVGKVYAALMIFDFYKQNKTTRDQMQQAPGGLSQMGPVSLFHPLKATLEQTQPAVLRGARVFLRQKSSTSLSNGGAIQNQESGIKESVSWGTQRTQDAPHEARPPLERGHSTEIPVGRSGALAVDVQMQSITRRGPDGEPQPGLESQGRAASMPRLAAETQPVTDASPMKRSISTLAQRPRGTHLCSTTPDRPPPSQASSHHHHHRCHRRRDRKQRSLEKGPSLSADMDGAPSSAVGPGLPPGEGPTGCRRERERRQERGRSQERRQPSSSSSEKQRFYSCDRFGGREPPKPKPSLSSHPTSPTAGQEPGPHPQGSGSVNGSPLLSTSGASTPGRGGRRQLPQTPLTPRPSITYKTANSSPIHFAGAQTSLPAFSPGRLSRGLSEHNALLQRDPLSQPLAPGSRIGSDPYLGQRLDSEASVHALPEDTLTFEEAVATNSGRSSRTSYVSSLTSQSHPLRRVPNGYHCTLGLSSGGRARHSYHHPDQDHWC
T1 sequence (Q02410 whole entry): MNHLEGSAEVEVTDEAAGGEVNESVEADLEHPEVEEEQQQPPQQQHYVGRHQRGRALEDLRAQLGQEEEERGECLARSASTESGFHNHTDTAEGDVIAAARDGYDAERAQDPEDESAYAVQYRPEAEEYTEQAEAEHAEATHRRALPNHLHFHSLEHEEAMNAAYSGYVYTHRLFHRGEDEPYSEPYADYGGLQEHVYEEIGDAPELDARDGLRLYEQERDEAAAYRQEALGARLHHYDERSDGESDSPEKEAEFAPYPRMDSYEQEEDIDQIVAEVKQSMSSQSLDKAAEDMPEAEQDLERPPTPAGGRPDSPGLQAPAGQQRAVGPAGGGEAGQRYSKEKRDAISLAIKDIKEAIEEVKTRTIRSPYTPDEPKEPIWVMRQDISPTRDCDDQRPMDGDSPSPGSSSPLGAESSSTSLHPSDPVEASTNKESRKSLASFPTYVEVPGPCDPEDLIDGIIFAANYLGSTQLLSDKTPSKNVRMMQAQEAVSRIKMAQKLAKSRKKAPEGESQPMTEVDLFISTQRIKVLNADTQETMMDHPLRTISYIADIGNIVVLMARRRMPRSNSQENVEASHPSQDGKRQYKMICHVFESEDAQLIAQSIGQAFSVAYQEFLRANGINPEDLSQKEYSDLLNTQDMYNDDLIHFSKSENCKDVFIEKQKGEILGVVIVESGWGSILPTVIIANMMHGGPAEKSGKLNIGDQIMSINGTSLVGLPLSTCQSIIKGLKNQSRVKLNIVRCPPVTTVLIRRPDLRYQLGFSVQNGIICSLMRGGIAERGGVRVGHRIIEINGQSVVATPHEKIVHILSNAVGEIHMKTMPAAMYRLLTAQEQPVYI
Chain of 26S proteasome non-ATPase regulatory subunit 14 (O00487 whole entry): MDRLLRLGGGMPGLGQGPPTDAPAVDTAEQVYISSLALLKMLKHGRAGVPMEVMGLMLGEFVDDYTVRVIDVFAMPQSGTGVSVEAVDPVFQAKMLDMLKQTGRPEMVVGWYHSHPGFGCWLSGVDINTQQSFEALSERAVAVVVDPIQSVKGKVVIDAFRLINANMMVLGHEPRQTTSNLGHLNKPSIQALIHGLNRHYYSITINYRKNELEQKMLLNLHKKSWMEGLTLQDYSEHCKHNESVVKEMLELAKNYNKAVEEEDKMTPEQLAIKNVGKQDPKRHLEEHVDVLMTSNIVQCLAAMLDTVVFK
Chain of E3 ubiquitin-protein ligase Mdm2/Protein Mdm4 (Q00987 whole entry): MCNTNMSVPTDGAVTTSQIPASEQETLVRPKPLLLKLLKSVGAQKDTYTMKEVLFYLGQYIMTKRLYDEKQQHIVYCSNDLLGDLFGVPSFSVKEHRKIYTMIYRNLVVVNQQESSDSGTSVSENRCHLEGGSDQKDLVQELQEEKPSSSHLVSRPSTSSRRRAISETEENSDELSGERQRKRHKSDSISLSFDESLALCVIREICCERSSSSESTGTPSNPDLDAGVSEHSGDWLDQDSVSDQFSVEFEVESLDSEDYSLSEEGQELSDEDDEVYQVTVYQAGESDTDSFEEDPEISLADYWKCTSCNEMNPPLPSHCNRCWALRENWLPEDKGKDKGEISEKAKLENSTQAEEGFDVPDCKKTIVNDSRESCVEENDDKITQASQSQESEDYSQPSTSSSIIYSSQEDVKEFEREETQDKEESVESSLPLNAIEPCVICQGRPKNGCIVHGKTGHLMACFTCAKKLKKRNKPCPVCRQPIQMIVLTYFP
Chain of E3 ubiquitin-protein ligase Mdm2/Protein Mdm4 (O15151 whole entry): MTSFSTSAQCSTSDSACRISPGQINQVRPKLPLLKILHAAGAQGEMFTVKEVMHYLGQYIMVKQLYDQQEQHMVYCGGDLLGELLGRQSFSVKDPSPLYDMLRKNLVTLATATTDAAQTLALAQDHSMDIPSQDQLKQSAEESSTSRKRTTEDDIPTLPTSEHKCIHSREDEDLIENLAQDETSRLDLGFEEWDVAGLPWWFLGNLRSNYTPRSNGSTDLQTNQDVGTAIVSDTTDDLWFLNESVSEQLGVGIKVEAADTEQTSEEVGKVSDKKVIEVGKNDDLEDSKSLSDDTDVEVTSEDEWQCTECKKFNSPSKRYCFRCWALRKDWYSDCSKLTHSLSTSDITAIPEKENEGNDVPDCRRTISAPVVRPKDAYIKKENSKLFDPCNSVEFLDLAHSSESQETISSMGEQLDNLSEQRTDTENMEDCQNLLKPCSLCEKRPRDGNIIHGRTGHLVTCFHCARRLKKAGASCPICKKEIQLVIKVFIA
Chain of Luciferin 4-monooxygenase (P08659 whole entry): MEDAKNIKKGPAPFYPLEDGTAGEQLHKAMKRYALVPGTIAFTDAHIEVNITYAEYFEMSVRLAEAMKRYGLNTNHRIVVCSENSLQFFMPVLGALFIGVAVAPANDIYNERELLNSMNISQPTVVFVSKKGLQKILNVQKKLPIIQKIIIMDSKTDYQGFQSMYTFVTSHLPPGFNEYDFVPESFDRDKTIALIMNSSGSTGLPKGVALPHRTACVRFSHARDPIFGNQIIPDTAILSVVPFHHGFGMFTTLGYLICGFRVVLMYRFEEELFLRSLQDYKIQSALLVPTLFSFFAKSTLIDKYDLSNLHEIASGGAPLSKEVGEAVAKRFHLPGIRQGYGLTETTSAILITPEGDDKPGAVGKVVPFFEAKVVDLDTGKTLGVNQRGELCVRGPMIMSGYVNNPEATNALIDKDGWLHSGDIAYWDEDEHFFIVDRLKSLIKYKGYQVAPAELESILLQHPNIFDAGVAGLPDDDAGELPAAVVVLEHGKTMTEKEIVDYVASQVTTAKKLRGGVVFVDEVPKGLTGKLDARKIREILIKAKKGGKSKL

As to `CCc1ccc(-n2cccc2/C=C2/C(=N)N3C(=NC2=O)SN=C3S(C)(=O)=O)cc1`, the IC50 is 12 µM (active) on Phospholipase A2; 45.8 µM (active) at Prothrombin; > 50 µM (inactive) in [1]; 7.3 µM (active) in test [2]; 11.2 µM (active) on Cysteine protease ATG4B; 21.8 µM (active) in [3]. The results for the IC50 (on Aminopeptidase N; in [5]) were 34.4 µM (active) and 30.9 µM (active), respectively. Also, in test [4], the AC50 was 11.5 µM (active).
Turning to `CN1Cc2c(N3CCOCC3)nc3sc(C(=O)c4ccc(Br)cc4)c(N)c3c2CC1(C)C`, the IC50 was > 20 µM (inactive) in test [6], 15.8 µM (active) in test [9] and 3.9 µM (active) in [10]. Moreover, the values for the EC50 in test [7], in test [8] and in test [11] were 10.4 µM (active), 11.6 µM (active) and 8.58 µM (active), respectively.
In the case of `Cc1nc(NC2=NCN(CCCN3CCOCC3)CN2)nc2c(C)cccc12`, the EC50 with HT-1080 is 51.5 µM (not active); in [12], 3.36 µM (active); in [14], 12.1 µM (not active). Also, the IC50 in [13] is 3.92 µM (active).
